From patent US12150750B2, “D-glucose and its analogs as tracers to assess the glucose transporter function on blood-cerebrospinal fluid barrier and the functioning of the brain lymphatic system” (The Johns Hopkins University, priority 2020, dated 2024)

How the values were obtained:
[1] = Dynamic glucose enhanced (DGE) onVDMP MRI at 11.7 T of glucose uptake in brain parenchyma and CSF of WT and Tau mice; format: in vivo, mouse; conditions: for fitted ADGE (amplitude of glucose uptake at equilibrium) of parenchyma: i.v. bolus 0.15 mL 50% glucose, n=4; for half-life: female, mouse, 0.15 mL of 50% w/w glucose (0.5 g/mL)
Procedure: (§1) The study was carried out under the approval of Johns Hopkins University animal care and use. Four female Tau4RΔK (Tau) mice (49) with an age of 7-8 months and four female age-matched C57BL/6J mice were used for the AD study. Two age-matched BALB/c mice were used for the validation of glucose uptake using an MRS method. The Tau mice were bred at Johns Hopkins University and the onset of tau tangles starts at the age of six months (49). A catheter was placed in the tail vein for glucose administration before placing the animal in the scanner.
All MRI experiments were performed on a horizontal bore 11.7 T Bruker Biospec system (Bruker, Ettlingen, Germany) equipped with actively shielded gradients, with a maximum strength of 74 Gauss/cm. A 72 mm quadrature volume resonator was used as a transmitter and a 2×2 mouse phased array coil for acquisition. All animals were anesthetized using 2% isoflurane in medical air, followed by 1% to 1.5% isoflurane for maintenance during the MRI scan. The mouse head was positioned using a bite bar and two ear pins. During the MRI scan, mice were placed on a water-heated animal bed. Respiratory rate was monitored via a pressure sensor (SAII, Stony Brook, NY, USA) and maintained at 40-60 breaths per minute. The B0 field over the mouse brain was adjusted using field-mapping and second-order shimming.
The MRI sequence used for monitoring the glucose uptake in brain and CSF was onVDMP, illustrated in (a) of FIG. 3. The duration of each binomial pulse pair was 3 ms, and the length of a saturation module was proportional to the total number of binomial pulse pairs. Two independent onVDMP sequences with different saturation-module lengths (i.e. 36 ms and 300 ms) were repeated in an interleaved fashion to detect the glucose uptake in brain parenchyma and CSF, respectively. Other imaging parameters were: TR/TE=2.5 s/5 ms, RARE factor=23, slice thickness=1 mm, a matrix size of 196×128 within a FOV of 20×10 mm^2. The scan time for each onVDMP experiment was fixed to 7.5 s and the dynamic glucose enhanced (DGE) images were acquired continuously for 27.5 min. A bolus of 0.15 mL 50% w/w glucose (0.5 g/mL, clinical-grade dextrose, Hospira, Lake Forest, IL) was given at 10th min of the dynamic experiment through the tail vein using a syringe pump (Harvard Apparatus Holliston, MA, USA). The first five minutes of dynamic scan were used as dummy scans to make sure system reached steady-state.
According to R1ρ theory (50-52), the water signal intensity (S) after applying an onVDMP sequence is expressed in some embodiments as: S=S0e^−T^onvDMP^R^1ρ (1)
where S0 is the water signal intensity without saturation. Because ΔR1ρ induced by glucose infusion is relatively small (41-43,53,54), the normalized change of water signal intensity ΔZ is approximated in some embodiments as: ΔZ=(Sbase−S)/Sbase=1−e^−T^onvDMP^ΔR^1ρ≈TonVDMPΔR1ρ (2)
where Sbase is the referenced water signal intensity. In this study, the average of water signal intensity before glucose infusion was used as Sbase. The dynamic images are calculated in some embodiments by averaging N images within a certain time period (55): Save=Σn=1^NΔZ(n)/N (3)
To correct for motion between DGE images, image registration was applied using Medical Imaging Registration Toolbox (MIRT) (56). The regions of interest (ROIs) were selected by hand with the reference to mouse brain atlas (https://mouse.brain-map.org).
The glucose uptake curves measured by DGE MRI are fitted using exponential functions in some embodiments to allow quantitative comparison: ΔDGE(t)=ADGE(1−e^−t/T^u,DGE) (4)
where ΔDGE(t) is the DGE signal difference determined by onVDMP MRI. Tu,DGE is the glucose uptake lifetime. The half-life time of glucose uptake was calculated by the equation: Thalf=Tu*0.6931. ADGE represents the amplitudes of glucose uptake at equilibrium measured by onVDMP. […]

[2] = Validation of glucose uptake in brain using an MRS method; format: in vivo; conditions: mouse, intravenous, BALB/c mice, read-out: half-life time of glucose uptake measured by MRS
Procedure: as §1

[3] = DGE onVDMP MRI at 3 T of D-glucose uptake and clearance in CSF of WT and APP/PS1 mice; format: in vivo, mouse; conditions: for ΔS at 2 min (CSF DGE signal difference) / ΔS at 30 min (CSF DGE signal difference): n=5
Description: All animal experiments were approved by the Animal Ethics Committee and followed the institutional guidelines of Institutional Laboratory Animal Research Unit of City University of Hong Kong. […] APP/PS1 mice are double transgenic mice expressing a chimeric mouse/human amyloid precursor protein (Mo/HuAPP695swe) and a mutant human presenilin 1 (PS1-dE9), both directed to CNS neurons. Both mutations are associated with early-onset AD. Another six 6M WT mice were used for the control experiments.
The onVDMP sequence diagram is shown in (a) of FIG. 3. By setting a different binomial pulse number N, the saturation length is adjusted to image the parenchyma and CSF, respectively. In this study, the saturation length was set to 60 ms for imaging parenchyma and 900 ms for imaging CSF. DGE experiments on both parenchyma and CSF images are acquired in an alternate way in some embodiments during one acquisition, similar to the experiments in example 1.
When carrying out the MRI experiments on mice, anesthesia was induced and maintained using isoflurane at 2% and 1.5%, respectively. The isoflurane was mixed with 90% oxygen generated by an oxygen concentrator. The flow rate of oxygen generator was set to 2 liter per minute (LPM) and kept unchanged during the whole experiment. Mice were placed in a horizontal bore 3 T Bruker BioSpec animal scanner (Bruker, Germany). A 82-mm-diameter quadrature coil and a 23-mm-diameter mouse brain surface coil were used for transmitting and receiving signal, respectively. A catheter was placed in the tail vein for glucose administration before placing the animal in the scanner. A bolus of 0.15 mL filtered 50% D-glucose was injected into the mouse body through the tail vein over one minute (speed: 0.15 ml/min) using a MRI-compatible syringe pump (Harvard Apparatus). Mouse body temperature was maintained at 37° C. using a warming pad. Respiration and body temperature were continuously monitored using an MRI-compatible monitor system (SA Instruments, Inc). Before DGE acquisition, the B0 field over the mouse brain was shimmed using field-mapping and second-order shimming. The read-out module was rapid acquisition with refocused echoes (RARE) with TR/TE=2.5 s/4.7 ms, RARE factor=32, centric encoding, slice thickness=2 mm, a matrix size of 96×96 within a field of view (FOV) of 20×20 mm^2, resulting in a time resolution of 15 s for each pair of images (7.5 s for parenchyma and 7.5 s for CSF). A total number of 550 images were acquire for each DGE module, thus leading to a total scanning time of 1 h8 min 45 s. The glucose injection was started at 8 min 45 s and lasted for 1 min. […] The image slice was positioned based on a collected sagittal image of the mouse brain with the position of the coronal image slice set to −1.4 mm with respect to the anterior commissure (AC).
All image processing and data analyses were performed using custom written code in MATLAB (R2018b, MathWorks, USA). When calculating DGE kinetic curves, baseline signal Sbase was generated by averaging the 30 baseline images. Since the total number of DGE images was large ([…] for each mouse), every set of 15 images were averaged to visualize the dynamic process of glucose changes. Then Eq. 5 was used for each time point to construct the DGE kinetic curves after glucose administration.
The DGE data of CSF were fitted by a simple gamma variate model(66,67) for only the first 20 mins after glucose injection, giving an uptake rate and an estimate of the initial rate of clearance:
where A is an amplitude modulation parameter, μin represents the glucose uptake rate, μout represents the initial rate of clearance. […] The maximum signal that CSF DGE reached is directly extracted in some embodiments after fitting as Smax=max(ΔS′CSF(t)). For both parenchymal and CSF DGE curves, fitting was achieved using the built-in nonlinear least-squares curve fitting function in MATLAB. […]

[4] = literature reference 28; cited from earlier work

fitted ADGE (amplitude of glucose uptake at equilibrium) of parenchyma ([1]; Tau4RΔK mice, cortex): 1.70±1.33%
CSF ADGE ([1]; Tau mice, CSF): 6.72±2.22%
time at which DGE signal reached a plateau ([1]; Tau mice, CSF): around 25 min
glucose uptake in the cortex (DGE signal intensity) ([1]; Tau mice, cortex): 1.6±1.3%
fitted ADGE (amplitude of glucose uptake at equilibrium) of parenchyma ([1]; WT mice (C57BL/6J), cortex): 5.42±0.70%
CSF ADGE ([1]; WT mice, CSF): 7.03±2.12%
drop of DGE signal from the peak value at 27.5 minutes ([1]; WT mice, CSF): about 1.5±0.5%
peak value of DGE signal ([1]; WT mice, CSF): 6±0.3%
time at which DGE signal plateaued ([1]; WT mice, CSF): around 10 min
time at which DGE signal reaches a maximum before decay ([1]; WT mice, CSF): around 15 minutes
glucose uptake in the cortex (DGE signal intensity) ([1]; WT mice, cortex): 4.3±1.3%
half-life ([1]; C57BL/6J, brain parenchyma (cortex), iv, WT mice, cortex, read-out: uptake half-life time of parenchyma): 4.71 ± 1.03 min
half-life ([1]; C57BL/6J, intravenous, brain tissue of WT mice, as restated in discussion, read-out: half-life time of glucose uptake obtained by the onVDMP method): 4.71 ± 1.18 min
half-life ([1]; C57BL/6J, iv, WT mice, CSF, read-out: uptake half-life time of CSF): 1.24 ± 0.24 min
half-life ([1]; Tau4RΔK, brain parenchyma (cortex), iv, Tau mice, cortex, read-out: uptake half-life time of parenchyma): 5.14 ± 0.3 min
half-life ([1]; Tau4RΔK, iv, Tau mice, CSF, read-out: uptake half-life time of CSF): 7.8 ± 1.14 min
time at which glucose uptake reaches a plateau ([1]; parenchymal ROI (cortex), both WT and Tau mice): about 20 min
half-life [2]: 4.16 ± 0.69 min
ΔS at 2 min (CSF DGE signal difference) ([3]; APP/PS1 mice 6M): 12.70±2.30%
ΔS at 30 min (CSF DGE signal difference) ([3]; APP/PS1 mice 6M): 11.84±4.13%
ΔS at 2 min (CSF DGE signal difference) ([3]; WT mice 6M, i.v. bolus 0.15 mL 50% D-glucose): 14.56±2.86%
ΔS at 30 min (CSF DGE signal difference) ([3]; WT mice 6M): 3.18±2.95%
D-glucose uptake rate μin, WT versus APP/PS1 ([3]; mouse, in vivo): no significant difference
Smax (maximum CSF DGE signal), APP/PS1 versus WT ([3]; mouse, in vivo): significantly lower
washout initial rate μout of D-glucose in CSF, APP/PS1 compared to WT ([3]; mouse, in vivo): significantly slower
SMILES: O=C[C@H](O)[C@@H](O)[C@H](O)[C@H](O)CO [D-glucose]
half-life time of glucose uptake, previous 13C MRS measurements [4]: 5.10 ± 0.11 min
